Measured values taken from patent US9023817B2, “Use of albiflorin for anti-depression” (priority 2009, dated 2015).

Experiments:
[1] = test system: rats with chronic stress induced depression model; test: Consumption of 1% aqueous sucrose, chronic stress induced depression; assay type: in vivo, SD rats; conditions: 1% aqueous sucrose for 1 hour
Method: The gavage was carried out along with the model establishment, once a day, for 21 days. […] Referring to the methods in the literature (Xu Jing, Li Xiaoqiu, Establishment and evaluation of the model of chronic stress induced depression, Chinese Journal of Behavioral Medical Science, 2003, 12(1): 14 16), the model was established (i.e., establishing animal model of anti-depression by means of CUMS): the foot electric shock (voltage: […] (5 minutes), drying at 45° C. […] All parameters to be tested were expressed as Mean±SD (X±s), and tested by means of analysis of variance (ANOVA) in SPSS 12.0 software (purchased from SPSS Inc., USA), p<0.05 means that there was a significant difference.

[2] = test system: rats with chronic stress induced depression model; test: Jump stair test, chronic stress induced depression; assay type: in vivo, SD rats; conditions: 3.5 mg/kg/day gavage for 21 days, 5 minutes
Method: The gavage was carried out along with the model establishment, once a day, for 21 days. […] Referring to the methods in the literature (Xu Jing, Li Xiaoqiu, Establishment and evaluation of the model of chronic stress induced depression, Chinese Journal of Behavioral Medical Science, 2003, 12(1): 14 16), the model was established (i.e., establishing animal model of anti-depression by means of CUMS): the foot electric shock (voltage: […] (5 minutes), drying at 45° C. (5 minutes), tail nipping (1 min), wet feeding (wet mat), reversed day and night (24 hours), fasting (24 hours), water deprivation (24 hours) were randomly scheduled within 21 days, one kind of stimulations was given for each day, except for the animals of vehicle group, the others were separately caged with free diet, at the room temperature of (24±1)° C., with the relative humidity of (60±10)%. […] A wooden platform (height: 5 cm, diameter: 8 cm) was placed into the box at the left back corner. Animals were placed into the response box to adapt to the environment for 3 minutes, and then the box was immediately electrified with […] alternating current, the normal response of the animal which suffered from electric shock was to jump onto the platform in order to avoid such harmful stimulation. Most animals were likely to jump down to the copper railings again or for several times, and then quickly jump back to the platform after suffering from the electric shock, being trained like this for 5 minutes, the times that the rats suffered from the electric shock were designated as error times. The test was carried out again after 24 hours, rats were placed on the platform and the box was charged, timing and recording the error times for 5 minutes. All parameters to be tested were expressed as Mean±SD (X±s), and tested by means of analysis of variance (ANOVA) in SPSS 12.0 software (purchased from SPSS Inc., USA), p<0.05 means that there was a significant difference.

[3] = test system: serotonin in the brain of rat; test: Serotonin in the brain of rat with chronic stress (HPLC-ECD, prefrontal cortex); assay type: in vivo, SD rats; conditions: 3.5 mg/kg/d gavage for 21 days
Method: After being fed without water for 24 hours, SD rats were administered with 1% aqueous sucrose, the consumption of aqueous sucrose was measured for 1 hour. The rats were randomly divided into six groups (n=12 for each group) according to the consumptions of aqueous sucrose, i.e. vehicle group, model group, positive control group of Fluoroxetine Hydrochloride (2.5 mg/kg/d), high-dose group (14 mg/kg/day), medium-dose group (7 mg/kg/day), and low-dose group (3.5 mg/kg/day) of Albiflorin. The gavage was carried out along with the model establishment, once a day, for 21 days. Each group was administered at a dose of 1.0 ml/100 g weight, and weighed once a week.
The rats were fed at 6/cage as vehicle group, with normal diets and drinking water, and without any stimulation.
The rats were fed at 1/cage as the other five groups, and subjected to unpredicted stress stimulations for 21 days, including: swimming in ice water, drying, tail nipping, wet feeding, reversed day and night, fasting, water deprivation and the like. One kind of stimulations was randomly given for each day.
The animal was executed by decapitation, the brain of it was quickly stripped on the ice, the prefrontal cortex was taken out, then placed into frozen tissue tube after weighting, rapidly frozen with liquid nitrogen, and placed into the refrigerator at −70° C. until test.

ICR mice [4] = test: Forced swimming test in mice; assay type: in vivo; conditions: 3.5 mg/kg/d by gavage for two days; 1 h after administration; last 4 min
Method: Each group was administered by gavage at a dose of 0.2 ml/10 g weight, for two days, deionized water was administered to vehicle group.
In the second day, 1 h after the administration, the mice were placed separately into a water cylinder with 20 cm of height, 18 cm of diameter, 10 cm of depth, 23±2° C. of water temperature; observing each for 6 min, after 2 min of adaption, the immobility time over the last 4 min was recorded.
The data was expressed as x±s, analyzed by SPSS 13.0 statistical software by means of One-Way ANOVA test, the homogeneity of variance was tested by LSD and SNK test.

[5] = test system: rats with chronic stress induced depression model; test: Body weights of rats with chronic stress induced depression (CUMS); assay type: in vivo, SD rats
Method: The gavage was carried out along with the model establishment, once a day, for 21 days. […] Referring to the methods in the literature (Xu Jing, Li Xiaoqiu, Establishment and evaluation of the model of chronic stress induced depression, Chinese Journal of Behavioral Medical Science, 2003, 12(1): 14 16), the model was established (i.e., establishing animal model of anti-depression by means of CUMS): the foot electric shock (voltage: […] (5 minutes), drying at 45° C. (5 minutes), tail nipping (1 min), wet feeding (wet mat), reversed day and night (24 hours), fasting (24 hours), water deprivation (24 hours) were randomly scheduled within 21 days, one kind of stimulations was given for each day, except for the animals of vehicle group, the others were separately caged with free diet, at the room temperature of (24±1)° C., with the relative humidity of (60±10)%. All parameters to be tested were expressed as Mean±SD (X±s), and tested by means of analysis of variance (ANOVA) in SPSS 12.0 software (purchased from SPSS Inc., USA), p<0.05 means that there was a significant difference.

ICR mice [6] = test: Acute toxicity test of Albiflorin; assay type: in vivo
Method: SFP level ICR mice were administered with Albiflorin at a dose of 8.4 g/kg, the observation time was 14 days.
The nature and rate of breath, behaviors (especially whether there was any vomit-causing phenomenon), actions, color and tension of fur, abdominal shape, hardness of feces, body weight and the like were observed.

**Q.** How did the “comsumption of aqeous sucrose” value ([1]; 3.5 mg/kg/day gavage, Day 0) turn out when C[C@]12C[C@@H](O)[C@@H]3C[C@@]1(O[C@@H]1O[C@H](CO)[C@@H](O)[C@H](O)[C@H]1O)[C@@]3(COC(=O)c1ccccc1)C(=O)O2 [Albiflorin] was run?
**A.** Its value is 12.75 ± 5.24 mL.

**Q.** What about the “comsumption of aqeous sucrose” value ([1]; 3.5 mg/kg/day gavage, Day 7) of the same molecule?
**A.** Its value is 12.67 ± 5.42 mL.

**Q.** And the “comsumption of aqeous sucrose” value ([1]; 3.5 mg/kg/day gavage, Day 14)?
**A.** The value was 11.83 ± 5.15 mL.

**Q.** And the “comsumption of aqeous sucrose” value ([1]; 3.5 mg/kg/day gavage, Day 21)?
**A.** Its value is 11.92 ± 3.96 mL.

**Q.** And the “comsumption of aqeous sucrose” value ([1]; 7 mg/kg/day gavage, Day 0)?
**A.** Its value is 12.67 ± 5.37 mL.

**Q.** What about the “comsumption of aqeous sucrose” value ([1]; 7 mg/kg/day gavage, Day 7) of the same molecule?
**A.** Its value is 13.42 ± 5.37 mL.

**Q.** What about the “comsumption of aqeous sucrose” value ([1]; 14 mg/kg/day gavage, Day 0) of the same molecule?
**A.** The value was 12.50 ± 5.32 mL.

**Q.** And the “comsumption of aqeous sucrose” value ([1]; 14 mg/kg/day gavage, Day 7)?
**A.** The value was 14.08 ± 3.65 mL.

**Q.** What about the “comsumption of aqeous sucrose” value ([1]; 14 mg/kg/day gavage, Day 14) of the same molecule?
**A.** Its value is 13.00 ± 3.74 mL.

**Q.** What about the “Error times in training period” value [2] of the same molecule?
**A.** The value was 2.25 ± 1.42.

**Q.** And the “Error times in testing period” value ([2]; after 24 hours)?
**A.** Its value is 2.08 ± 1.31.

**Q.** And the 5-HT [3]?
**A.** Its 5-HT is 188.43 ± 67.91.

**Q.** And the “Immobility Time” value (ICR mice [4])?
**A.** Its value is 44.85 ± 29.695 s.

**Q.** And the body weights ([5]; 3.5 mg/kg/day gavage, Day 0)?
**A.** The body weights was 256.83 ± 11.49 g.

**Q.** What about the body weights ([5]; 3.5 mg/kg/day gavage, Day 7) of the same molecule?
**A.** Its body weights is 265.65 ± 11.23 g.

**Q.** And the body weights ([5]; 3.5 mg/kg/day gavage, Day 14)?
**A.** Its body weights is 270.75 ± 18.15 g.

**Q.** What about the body weights ([5]; 3.5 mg/kg/day gavage, Day 21) of the same molecule?
**A.** The body weights was 271.07 ± 19.06 g.

**Q.** And the body weights ([5]; 7 mg/kg/day gavage, Day 0)?
**A.** Its body weights is 250.18 ± 13.45 g.

**Q.** What about the body weights ([5]; 7 mg/kg/day gavage, Day 7) of the same molecule?
**A.** Its body weights is 265.65 ± 12.44 g.

**Q.** And the body weights ([5]; 14 mg/kg/day gavage, Day 0)?
**A.** Its body weights is 255.84 ± 11.69 g.

**Q.** And the body weights ([5]; 14 mg/kg/day gavage, Day 7)?
**A.** The body weights was 268.11 ± 17.50 g.

**Q.** And the “safe dosage as multiple of the clinical dosage” value (ICR mice [6]; 8.4 g/kg body weight, mice, by gavage)?
**A.** The value was “approximately 600 times”.

**Q.** What about the “body weight compared with the vehicle group” value (ICR mice [6]; 8.4 g/kg by gavage, Day 7 and Day 14) of the same molecule?
**A.** The value was “without significant difference”.

**Q.** And the “abnormal symptoms and death” value (ICR mice [6]; 8.4 g/kg by gavage, observation for 14 days)?
**A.** Its value is “neither any abnormal symptom nor any death was found”.

**Q.** What about the “dosage at which still safe” value (ICR mice [6]; mice, by gavage) of the same molecule?
**A.** Its value is 8.4 g/kg body weight.
